Source: US20180244653A1, “SELECTIVE ALPHA-7 NICOTINIC RECEPTOR AGONISTS AND METHODS FOR MAKING AND USING THEM” (THE REGENTS OF THE UNIVERSITY OF CALIFORNIA, priority 2015, published 2018)

Experiments:
[1] = tested on: scopolamine-induced amnesic mice; test: Object recognition test (ORT); type: in vivo; settings: i.p.; for Discrimination index / episodic short-term memory, ORT vs scopolamine-treated group: tacrine 1 mg/kg, IND8, QND8 10 and 50 μmol/kg; for Minimum effective dose, ORT: scopolamine induced amnesia model, ICR mice
Protocol: FIG. 22 illustrates exploration time to familiar (F) and novel (N) objects of IND8 (A) and QND8 (B) in test phase of ORT. Each mouse was allowed to explore an open field apparatus for 5 min in a habituation phase. After a 24 h period, IND8, QND8, PNU-282987, vehicle (15% Tween80, SH) and tacrine (TC) were injected 1 h and scopolamine (SC) 30 min before sample phase, respectively. Each mouse explored 2 identical objects in the sample phase for 5 min and then placed in its cage for 10 min before the test phase began. In the 5 min of test phase, one of the objects was changed to a new one. The exploration time of these objects was recorded.
In both data sets, a discrimination index (DI) was calculated and used to evaluate the ability of mice to discriminate between familiar and novel objects. Data are represented in FIG. 23.
Amnesia was induced pharmacologically in mice via scopolamine injection (single dose) for 30 min prior to start the experiments. They were divided into vehicle group: receiving 15% tween 80 and 0.9% NSS, amnesia group: receiving scopolamine 1 mg/kg, standard positive control group receiving tacrine 1 mg/kg, and test group: receiving IND8, QND8 at dose 5, 10, 25, 50 μmol/kg, or PNU-282987 3, 10 mg/kg, single dose. All mice were acclimated in an experimental room at least 30 min before the experiments.
The apparatus was made of black polyvinyl chloride (52×52×40 cm). The objects used in this experiment had different visual shapes and colors to be discriminated. They were placed 10 cm from the side wall in the balanced manner. The box area and objects were cleaned with 70% ethanol between each experiment to remove odor cues.
The mice were randomly divided into different treatment groups. They were allowed to freely explore the open field apparatus for 5 min for habituation in the day prior to the experiments to get familiar with the apparatus. On the experimental day, test compounds injected 1 h, whereas scopolamine administered 30 min before the sample phase (acquisition trial). The mice were placed in the apparatus to explore 2 identical objects. After 10 min of acclimation in their cages, one object was changed to a new one, and mice were allowed to explore these objects for 5 min in the test phase (retention trial). The exploration time of each object was recorded if the nose of mice approached the objects within 3 cm or touched the objects. The discrimination index (DI) was calculated by using (TN−TF)/(TN+TF); TN and TF represented exploration time of new and familiar objects, respectively.

hERG K^+ channel = hERG K^+ channel (Homo sapiens, UniProt Q12809); settings: at 20 μM; cited from earlier work
hERG K^+ channel, sequence (Q12809 whole entry): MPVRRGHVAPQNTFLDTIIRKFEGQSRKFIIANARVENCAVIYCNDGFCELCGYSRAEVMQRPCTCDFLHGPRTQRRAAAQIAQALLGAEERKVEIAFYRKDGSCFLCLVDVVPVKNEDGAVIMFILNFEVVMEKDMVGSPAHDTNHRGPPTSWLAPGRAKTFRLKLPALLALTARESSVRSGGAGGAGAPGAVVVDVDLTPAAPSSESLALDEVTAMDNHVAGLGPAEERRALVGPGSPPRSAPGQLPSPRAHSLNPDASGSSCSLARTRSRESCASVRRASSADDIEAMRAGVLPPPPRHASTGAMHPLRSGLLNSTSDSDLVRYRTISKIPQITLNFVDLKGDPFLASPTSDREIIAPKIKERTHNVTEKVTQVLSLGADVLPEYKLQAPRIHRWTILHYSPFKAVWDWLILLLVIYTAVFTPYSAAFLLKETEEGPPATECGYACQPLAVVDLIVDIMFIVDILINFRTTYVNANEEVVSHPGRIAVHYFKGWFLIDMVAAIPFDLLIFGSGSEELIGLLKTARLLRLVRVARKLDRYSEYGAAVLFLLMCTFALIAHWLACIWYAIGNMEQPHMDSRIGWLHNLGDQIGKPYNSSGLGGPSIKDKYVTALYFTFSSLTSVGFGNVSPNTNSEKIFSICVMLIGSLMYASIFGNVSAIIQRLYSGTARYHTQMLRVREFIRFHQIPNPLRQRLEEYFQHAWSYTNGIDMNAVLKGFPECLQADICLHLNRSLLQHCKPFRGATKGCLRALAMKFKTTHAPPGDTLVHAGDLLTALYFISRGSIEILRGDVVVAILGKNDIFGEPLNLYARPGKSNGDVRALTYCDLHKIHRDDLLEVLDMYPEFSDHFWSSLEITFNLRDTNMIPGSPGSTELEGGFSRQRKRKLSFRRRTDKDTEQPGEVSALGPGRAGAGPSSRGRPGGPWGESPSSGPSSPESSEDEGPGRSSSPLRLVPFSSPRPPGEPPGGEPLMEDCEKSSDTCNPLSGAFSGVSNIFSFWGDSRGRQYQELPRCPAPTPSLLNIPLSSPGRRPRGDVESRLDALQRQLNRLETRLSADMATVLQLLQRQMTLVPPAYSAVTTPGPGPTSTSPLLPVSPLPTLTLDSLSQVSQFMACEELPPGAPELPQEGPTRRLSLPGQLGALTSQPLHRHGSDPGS

| SMILES | Discrimination index / episodic short-term memory, ORT vs scopolamine-treated group [1] | Minimum effective dose, ORT [1] [µmol/kg] | inhibition of hERG (hERG K^+ channel) [%] |
| --- | --- | --- | --- |
| c1cc2cc(-c3cn(C4CN5CCC4CC5)nn3)ccc2[nH]1 (centres unmarked) [IND8, 5-((Quinuclid-3-yl)-1H-1,2,3-triazol-4-yl)-1H-indole] | significantly improved episodic short-term memory | 10 | – |
| O=C(N[C@H]1CN2CCC1CC2)c1ccc(Cl)cc1 [PNU-282987, reference compound] | – | – | 57 |
| Oc1ccc(-c2cn(C3CN4CCC3CC4)nn2)cc1 (centres unmarked) [QND8, 3-(4-hydroxyphenyl-1,2,3-triazol-1-yl) quinuclidine] | significantly improved episodic short-term memory | 10 | – |
